# In patent publication US8247211B2, “Glycopeptide antibiotics” (American Cyanamid Company, priority 2001, dated 2012):
# Tests used:
# Assay in all cases: In vitro antibacterial evaluation: minimum inhibitory concentration (MIC), broth dilution method
# Type in all cases: cell-based
# [1] = test system: Enterococcus sp.; conditions: for MIC Enterococcus faecalis (ATCC 29212): strain ATCC 29212; for MIC Enterococcus faecalis (GC 2242): strain GC 2242; for MIC Enterococcus faecium (GC 2243): strain GC 2243; for MIC Enterococcus faecalis (GC 2691): strain GC 2691; for MIC Enterococcus faecalis (GC 3059): strain GC 3059; for MIC Enterococcus faecalis (GC 4552): strain GC 4552; for MIC Enterococcus faecalis (GC 4553): strain GC 4553; for MIC Enterococcus faecalis (GC 4554): strain GC 4554; for MIC Enterococcus faecium (GC 4556): strain GC 4556; for MIC Enterococcus faecium (GC 4557): strain GC 4557; for MIC Enterococcus avium (GC 4558): strain GC 4558; for MIC Enterococcus faecalis (GC 6189): strain GC 6189
# In short: (§1)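 Using Muller-Hinton II […] and an inoculum of 5×10^5 CFU/mL, antibiotic dilutions from 64 down to 0.06 μg/mL were tested following NCCLS M7-A2. The MIC is the lowest concentration inhibiting growth, including in methicillin-, penicillin- or vancomycin-resistant clinical isolates.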
# [2] = test system: Escherichia coli; conditions: for MIC Escherichia coli (ATCC 25922): strain ATCC 25922; for MIC Escherichia coli (GC 4559): strain GC 4559; for MIC Escherichi coli (GC 4560): strain GC 4560
# In short: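 Broth dilution per NCCLS M7-A2 in Muller-Hinton II […], inoculum 5×10^5 CFU/mL, antibiotic tested over 64-0.06 μg/mL. MIC is taken as the lowest concentration that inhibits growth. Panel includes recent clinical isolates resistant to methicillin, penicillin and/or vancomycin.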
# [3] = test system: Staphylococcus sp.; conditions: broth dilution, 18 hours at 35° C.
# In short: as §1
# [4] = test system: Streptococcus sp.; conditions: for MIC Streptococcus pneumoniae (ATCC 6301): strain ATCC 6301; for MIC Streptococcus pneumoniae (GC 1894): strain GC 1894; for MIC Streptococcus pyogenes (GC 4563): strain GC 4563; for MIC Streptococcus agalactiae (GC 4564): strain GC 4564; for MIC Streptococcus pneumoniae (GC 4565): strain GC 4565
# In short: as §1
compound,measurement,setting,value
"COc1cc(OC)cc(C2OC3C(OC4C(CO)OC(Oc5ccc(CC6NC(=O)C(C(C)c7ccccc7)NC(=O)CNC(=O)C(CO)NC(=O)C(C(O)C7CNC(=N)N7C7OC(CO)C(O)C(O)C7O)NC(=O)C(C(O)C7CNC(=N)N7)NC6=O)cc5)C(O)C4O)OC(CO)C(O)C3O2)c1 (stereo not drawn) [Example 150a, Cyclo[glycyl-β-methylphenylalanyl-O-[4-O-[2,3-O-(3,5-dimethoxybenzylidene)hexopyranosyl]-hexopyranosyl]tyrosyl-3-(2-iminoimidazolidin-4-yl)seryl-3-(3-hexopyranosyl-2-iminoimidazolidin-4-yl)serylseryl]]",MIC Enterococcus faecalis (ATCC 29212),[1],>64 µg/mL
same,MIC Enterococcus faecalis (GC 2242),[1],>64 µg/mL
same,MIC Enterococcus faecium (GC 2243),[1],>64 µg/mL
same,MIC Enterococcus faecalis (GC 2691),[1],>64 µg/mL
same,MIC Enterococcus faecalis (GC 3059),[1],>64 µg/mL
same,MIC Enterococcus faecalis (GC 4552),[1],>64 µg/mL
same,MIC Enterococcus faecalis (GC 4553),[1],>64 µg/mL
same,MIC Enterococcus faecalis (GC 4554),[1],>64 µg/mL
same,MIC Enterococcus faecium (GC 4556),[1],>64 µg/mL
same,MIC Enterococcus faecium (GC 4557),[1],16 µg/mL
same,MIC Enterococcus avium (GC 4558),[1],64 µg/mL
same,MIC Enterococcus faecalis (GC 6189),[1],>64 µg/mL
same,MIC Escherichia coli (ATCC 25922),[2],>64 µg/mL
same,MIC Escherichia coli (GC 4559),[2],>64 µg/mL
same,MIC Escherichi coli (GC 4560),[2],16 µg/mL
same,MIC Coagulase Negative Staphylococcus (GC 4547),[3]; 5×10^5 CFU/mL,16 µg/mL
same,MIC Coagulase Negative Staphylococcus (GC 4548),[3]; 5×10^5 CFU/mL,8 µg/mL
same,MIC Coagulase Negative Staphylococcus (GC 4549),[3]; 5×10^5 CFU/mL,8 µg/mL
same,MIC Coagulase Negative Staphylococcus (GC 4551),[3]; 5×10^5 CFU/mL,32 µg/mL
same,MIC Coagulase Negative Staphylococcus (GC 6257),[3]; 5×10^5 CFU/mL,8 µg/mL
same,MIC Staphylococcus aureus (ATCC 29213),[3]; 5×10^5 CFU/mL,32 µg/mL
same,MIC Staphylococcus aureus (GC 1131),[3]; 5×10^5 CFU/mL,32 µg/mL
same,MIC Staphylococcus aureus (GC 3051),[3]; 5×10^5 CFU/mL,32 µg/mL
same,MIC Staphylococcus aureus (GC 3053),[3]; 5×10^5 CFU/mL,32 µg/mL
same,MIC Staphylococcus aureus (GC 4541),[3]; 5×10^5 CFU/mL,16 µg/mL
same,MIC Staphylococcus aureus (GC 4542),[3]; 5×10^5 CFU/mL,32 µg/mL
same,MIC Staphylococcus aureus (GC 4544),[3]; 5×10^5 CFU/mL,32 µg/mL
same,MIC Staphylococcus aureus (GC 4545),[3]; 5×10^5 CFU/mL,16 µg/mL
same,MIC Staphylococcus aureus-SMITH (GC 4543),[3]; 5×10^5 CFU/mL,16 µg/mL
same,MIC Staphylococcus haemolyticus (GC 4546),[3]; 5×10^5 CFU/mL,16 µg/mL
same,MIC Staphylococcus aureus (ATCC 29213),[3]; strain ATCC 29213,32 µg/mL
same,MIC Staphylococcus aureus (GC 1131),[3]; strain GC 1131,32 µg/mL
same,MIC Staphylococcus aureus (GC 3051),[3]; strain GC 3051,32 µg/mL
same,MIC Staphylococcus aureus (GC 3053),[3]; strain GC 3053,32 µg/mL
same,MIC Staphylococcus aureus (GC 4541),[3]; strain GC 4541,16 µg/mL
same,MIC Staphylococcus aureus (GC 4542),[3]; strain GC 4542,32 µg/mL
same,MIC Staphylococcus aureus-SMITH (GC 4543),[3]; strain GC 4543,16 µg/mL
same,MIC Staphylococcus aureus (GC 4544),[3]; strain GC 4544,32 µg/mL
same,MIC Staphylococcus aureus (GC 4545),[3]; strain GC 4545,16 µg/mL
same,MIC Staphylococcus haemolyticus (GC 4546),[3]; strain GC 4546,16 µg/mL
same,MIC Coagulase Negative Staphylococcus (GC 4547),[3]; strain GC 4547,16 µg/mL
same,MIC Coagulase Negative Staphylococcus (GC 4548),[3]; strain GC 4548,8 µg/mL
same,MIC Coagulase Negative Staphylococcus (GC 4549),[3]; strain GC 4549,8 µg/mL
same,MIC Coagulase Negative Staphylococcus (GC 4551),[3]; strain GC 4551,32 µg/mL
same,MIC Coagulase Negative Staphylococcus (GC 6257),[3]; strain GC 6257,8 µg/mL
same,MIC Streptococcus pneumoniae (ATCC 6301),[4],8 µg/mL
same,MIC Streptococcus pneumoniae (GC 1894),[4],8 µg/mL
same,MIC Streptococcus pyogenes (GC 4563),[4],16 µg/mL
same,MIC Streptococcus agalactiae (GC 4564),[4],32 µg/mL
same,MIC Streptococcus pneumoniae (GC 4565),[4],16 µg/mL
"Cc1cc(C2OCC3OC(OC4C(CO)OC(Oc5ccc(CC6NC(=O)C(C(C)c7ccccc7)NC(=O)CNC(=O)C(CO)NC(=O)C(C(O)C7CNC(=N)N7C7OC(CO)C(O)C(O)C7O)NC(=O)C(C(O)C7CNC(=N)N7)NC6=O)cc5)C(O)C4O)C(O)C(O)C3O2)ccc1[N+](=O)[O-] (stereo not drawn) [Example 151, Cyclo[glycyl-β-methylphenylalanyl-O-[4-O-[4,6-O-(3-methyl-4-nitrobenzylidene)hexonyranosyl]hexopyranosyl]tyrosyl-3-(2-iminoimidazolidin-4-yl)seryl-3-(3-hexopyranosyl-2-iminoimidazolidin-4-yl)serylseryl]]",MIC Enterococcus faecalis (ATCC 29212),[1],32 µg/mL
same,MIC Enterococcus faecalis (GC 2242),[1],16 µg/mL
same,MIC Enterococcus faecium (GC 2243),[1],32 µg/mL
same,MIC Enterococcus faecalis (GC 2691),[1],32 µg/mL
same,MIC Enterococcus faecalis (GC 3059),[1],32 µg/mL
same,MIC Enterococcus faecalis (GC 4552),[1],32 µg/mL
same,MIC Enterococcus faecalis (GC 4553),[1],32 µg/mL
same,MIC Enterococcus faecalis (GC 4554),[1],32 µg/mL
same,MIC Enterococcus faecium (GC 4556),[1],32 µg/mL
same,MIC Enterococcus faecium (GC 4557),[1],8 µg/mL
same,MIC Enterococcus avium (GC 4558),[1],32 µg/mL
same,MIC Enterococcus faecalis (GC 6189),[1],64 µg/mL
same,MIC Escherichia coli (ATCC 25922),[2],>64 µg/mL
same,MIC Escherichia coli (GC 4559),[2],>64 µg/mL
same,MIC Escherichi coli (GC 4560),[2],2 µg/mL
same,MIC Coagulase Negative Staphylococcus (GC 4547),[3]; 5×10^5 CFU/mL,4 µg/mL
same,MIC Coagulase Negative Staphylococcus (GC 4548),[3]; 5×10^5 CFU/mL,4 µg/mL
same,MIC Coagulase Negative Staphylococcus (GC 4549),[3]; 5×10^5 CFU/mL,2 µg/mL
same,MIC Coagulase Negative Staphylococcus (GC 4551),[3]; 5×10^5 CFU/mL,8 µg/mL
same,MIC Coagulase Negative Staphylococcus (GC 6257),[3]; 5×10^5 CFU/mL,2 µg/mL
same,MIC Staphylococcus aureus (ATCC 29213),[3]; 5×10^5 CFU/mL,8 µg/mL
same,MIC Staphylococcus aureus (GC 1131),[3]; 5×10^5 CFU/mL,8 µg/mL
same,MIC Staphylococcus aureus (GC 3051),[3]; 5×10^5 CFU/mL,8 µg/mL
same,MIC Staphylococcus aureus (GC 3053),[3]; 5×10^5 CFU/mL,16 µg/mL
same,MIC Staphylococcus aureus (GC 4541),[3]; 5×10^5 CFU/mL,4 µg/mL
same,MIC Staphylococcus aureus (GC 4542),[3]; 5×10^5 CFU/mL,8 µg/mL
same,MIC Staphylococcus aureus (GC 4544),[3]; 5×10^5 CFU/mL,8 µg/mL
same,MIC Staphylococcus aureus (GC 4545),[3]; 5×10^5 CFU/mL,4 µg/mL
same,MIC Staphylococcus aureus-SMITH (GC 4543),[3]; 5×10^5 CFU/mL,8 µg/mL
same,MIC Staphylococcus haemolyticus (GC 4546),[3]; 5×10^5 CFU/mL,2 µg/mL
same,MIC Staphylococcus aureus (ATCC 29213),[3]; strain ATCC 29213,8 µg/mL
same,MIC Staphylococcus aureus (GC 1131),[3]; strain GC 1131,8 µg/mL
same,MIC Staphylococcus aureus (GC 3051),[3]; strain GC 3051,8 µg/mL
same,MIC Staphylococcus aureus (GC 3053),[3]; strain GC 3053,16 µg/mL
same,MIC Staphylococcus aureus (GC 4541),[3]; strain GC 4541,4 µg/mL
same,MIC Staphylococcus aureus (GC 4542),[3]; strain GC 4542,8 µg/mL
same,MIC Staphylococcus aureus-SMITH (GC 4543),[3]; strain GC 4543,8 µg/mL
same,MIC Staphylococcus aureus (GC 4544),[3]; strain GC 4544,8 µg/mL
same,MIC Staphylococcus aureus (GC 4545),[3]; strain GC 4545,4 µg/mL
same,MIC Staphylococcus haemolyticus (GC 4546),[3]; strain GC 4546,2 µg/mL
same,MIC Coagulase Negative Staphylococcus (GC 4547),[3]; strain GC 4547,4 µg/mL
same,MIC Coagulase Negative Staphylococcus (GC 4548),[3]; strain GC 4548,4 µg/mL
same,MIC Coagulase Negative Staphylococcus (GC 4549),[3]; strain GC 4549,2 µg/mL
same,MIC Coagulase Negative Staphylococcus (GC 4551),[3]; strain GC 4551,8 µg/mL
same,MIC Coagulase Negative Staphylococcus (GC 6257),[3]; strain GC 6257,2 µg/mL
same,MIC Streptococcus pneumoniae (ATCC 6301),[4],1 µg/mL
same,MIC Streptococcus pneumoniae (GC 1894),[4],0.5 µg/mL
same,MIC Streptococcus pyogenes (GC 4563),[4],2 µg/mL
same,MIC Streptococcus agalactiae (GC 4564),[4],4 µg/mL
same,MIC Streptococcus pneumoniae (GC 4565),[4],1 µg/mL
